Experiments:
[1] = test system: Corynebacterium ammoniagenes AGRI45-11 (VKPM B-8009); format: cell-based; details: for Effect on growth of the XMP producer strain: in high concentration, strain AGRI45-11
Protocol: (§1) Corynebacterium ammoniagenes AGRI45-11 (VKPM B-8009) was treated with 50 μg/ml of NTG for 20 minutes. Then cells were plated on PYM medium having the composition (g/L): peptone—10.0, yeast extract—10.0, meat extract—5.0, NaCl—2.5, agar—20.0, and containing 40 g/L, or 50 g/L, or 60 g/L glycine. The inoculated plates were incubated at 30° C. for 5 days.
Corynebacterium ammoniagenes AGRI45-11 (VKPM B-8009) was treated with NTG, and cells were plated on the PYM medium as in Example 1, containing 45 μg/ml, or 50 μg/ml, or 55 μg/ml, or 60 μg/ml polymyxin. The inoculated plates were incubated at 30° C. for 5 days.
(§2) The parental strain Corynebacterium ammoniagenes AGRI45-11 (VKPM B-8009) was streaked onto PYM medium of Example 1, containing 5, 15, 30 or 50 μg/ml of rifampicin instead of glycine and inoculated plates were incubated at 34° C. for 3 days. The mutants resistant to rifampicin was selected from among spontaneously appeared colonies.
A series of mutants resistant to 50 or 100 μg/ml oligomycin was selected from the strain Corynebacterium anmoniagenes AGRI45-11 (VKPM B-8009) using the procedure, described in the Example 1, but oligomycin was used instead of glycine.
Corynebacterium ammoniagenes AGRI45-11 (VKPM B-8009) was treated with NTG, and cells were plated on PYM medium as in Example 1, containing 2, 4 or 6 μg/ml of CCCP instead of glycine. The inoculated plates were incubated at 30° C. for 5 days. […] This strain and the parent strain Corynebacterium ammoniagenes AGRI45-11 (VKPM B-8009) were each cultivated at 32° C. for 20 h with aeration in a seed medium as in the Example 1. Then 0.3 ml of the obtained culture was inoculated into 3 ml of the fermentation medium of the Example 1, in 20×200 mm test tubes, and cultivated at 32° C. for 72 hours with a rotary shaker. After the cultivation, an accumulated amount of XMP in the medium was determined by known method.
Corynebacterium ammoniagenes AGRI45-11 (VKPM B-8009) was treated with NTG as in Example 1, aliquots were introduced into 20×200 mm test tubes and incubated at 32° C. for 20 h with shaking in minimal medium having the following composition (see below) with a rotary shaker. Then the cells were collected and plated on the minimal medium agar and containing several combinations of the inhibitors:
(§3) The mutants resistant to the analogue were obtained using the procedure described in Example 6, except for the only combinations of the inhibitors was applied: DL-methionine sulfone-10 mg/ml +DL-methionine-20 mg/ml.

[2] = test system: Corynebacterium ammoniagenes AGRI10-52 (VKPM B-8006); details: mutant strain AGRI10-52
Protocol: as §1

[3] = test system: Corynebacterium ammoniagenes AGRI67-52 (VKPM B-8004); test: Growth of the oligomycin-resistant mutant in the presence of oligomycin; format: cell-based; details: mutant strain AGRI67-52
Protocol: A series of mutants resistant to 50 or 100 μg/ml oligomycin was selected from the strain Corynebacterium anmoniagenes AGRI45-11 (VKPM B-8009) using the procedure, described in the Example 1, but oligomycin was used instead of glycine. […] The best mutant, strain Corynebacterium ammoniagenes AGRI67-52 (VKPM B-8004) when tested in parallel as in Example 1 accumulated about 22 % more XMP than the parental strain Corynebacterium ammoniagenes AGRI45-11 (VKPM B-8009) (Table 4 ).

[4] = test system: Corynebacterium ammoniagenes AGRI101-51 (VKPM B-8010); test: Growth of the polymyxin-resistant mutant in the presence of polymyxin; format: cell-based; details: mutant strain AGRI 101-51
[5] = test system: Gram-positive bacterium Corynebacterium ammoniagenes; test: Growth inhibition of Corynebacterium ammoniagenes by polymyxin B; format: cell-based; details: high concentrations
Description: Polymyxin B is a polypeptide antibiotics effective against Gram-negative bacteria. The cell membrane of the bacteria is considered to be the target of the antibiotic. […] The mutations conferring resistance to polymyxin B may affect cytoplasmic membrane and mimic a stress condition, inducing XMP efflux transporter. Therefore the mutants resistant to growth inhibition by the drug were selected.

[6] = test system: Corynebacterium ammoniagenes AGRI47-51 (VKPM B-8007); test: Growth of the methionine sulfone-resistant mutant with DL-methionine sulfone + DL-methionine; format: cell-based; details: mutant strain AGRI47-51
Protocol: as §3
Among the mutants which appeared after 4 to 8 days incubation the strain Corynebacterium ammoniagenes AGRI47-51 (VKPM B-8007) was selected. This strain and the parent strain Corynebacterium ammoniagenes AGRI45-11 (VKPM B-8009) were each cultivated at 32° C. for 20 h with aeration in a seed medium as in the Example 1. Then 0.3 ml of the obtained culture was inoculated into 3 ml of the fermentation medium of the Example 1, in 20×200 mm test tubes, and cultivated at 32° C. for 72 hours with a rotary shaker.

[7] = test system: Corynebacterium ammoniagenes AGRI97-52 (VKPM B-8008); test: Growth of the CCCP-resistant mutant with CCCP; format: cell-based; details: mutant strain AGRI97-52
[8] = test system: Corynebacterium ammoniagenes AGRI93-38 (VKPM B-8003); test: Growth of the rifampicin-resistant mutant with rifampicin; format: cell-based; details: mutant strain AGRI93-38
Protocol: as §2, with “colonies. Among the mutants the most productive strain Corynebacterium ammoniagenes AGRI93-38 (VKPM B-8003) was selected.” for “colonies.”

[9] = test system: Corynebacterium ammoniagenes AGRI11-51 (VKPM B-8005); test: Growth of the methionine sulfoxide-resistant mutant with DL-methionine sulfoxide + DL-methionine; format: cell-based; details: mutant strain AGRI11-51
Protocol: Then the cells were collected and plated on the minimal medium agar and containing several combinations of the inhibitors:
Mutants which appeared after 4 to 8 days incubation were picked up and tested for their XMP productivity. Among them the strain Corynebacterium ammoniagenes AGRI11-51 (VKPM B-8005) was selected. This strain and the parent strain Corynebacterium anmoniagenes AGRI45-11 (VKPM B-8009) were each cultivated at 32° C. for 20 h with aeration in a seed medium as in the Example 1. Then 0.3 ml of the obtained culture was inoculated into 3 ml of the fermentation medium of the Example 1, in 20×200 mm test tubes, and cultivated at 32° C. for 72 hours with a rotary shaker. After the cultivation, an accumulated amount of XMP in the medium was determined by known method.

Molecule: NCC(=O)O [glycine]
- Growth in the presence of 6% glycine ([1]; 6% glycine, parent strain AGRI45-11): −
- Growth in the presence of 6% glycine [2]: +

Molecule: CC[C@H]1/C=C/C=C/C[C@@H](C)[C@H](O)[C@@](C)(O)C(=O)[C@@H](C)[C@H](O)[C@@H](C)C(=O)[C@@H](C)[C@H](O)[C@@H](C)/C=C/C(=O)O[C@@H]2[C@H](C)[C@H](CC1)O[C@]1(CC[C@H](C)[C@H](C[C@@H](C)O)O1)[C@H]2C [oligomycin]
- Growth in the presence of 100 μg/ml oligomycin ([1]; 100 μg/ml oligomycin, parent strain AGRI45-11): −
- Growth in the presence of 100 μg/ml oligomycin [3]: +

Molecule: Polymyxin B
- Growth in the presence of 45 μg/ml polymyxin ([1]; 45 μg/ml polymyxin, parent strain AGRI45-11): −
- Growth in the presence of 45 μg/ml polymyxin [4]: +
- Concentration that inhibited the growth [5]: 40 to 50 µg/mL

Molecule: CS(=O)(=O)CCC(N)C(=O)O (racemic) [DL-methionine sulfone]
- Growth with 10 mg/ml DL-methionine sulfone + 20 mg/ml DL-methionine ([1]; 10 mg/ml DL-methionine sulfone + 20 mg/ml DL-methionine, parent strain AGRI45-11): −
- Effect on growth of the XMP producer strain [1]: inhibited the growth
- Growth with 10 mg/ml DL-methionine sulfone + 20 mg/ml DL-methionine [6]: +

Molecule: N#CC(C#N)=NNc1cccc(Cl)c1 [CCCP, Carbonyl cyanide m-chlorophenyl hydrazone]
- Growth with 4 μg/ml CCCP ([1]; 4 μg/ml CCCP, parent strain AGRI45-11): −
- Growth with 4 μg/ml CCCP [7]: +

Molecule: CO[C@H]1/C=C/O[C@@]2(C)Oc3c(C)c(O)c4c(O)c(c(/C=N/N5CCN(C)CC5)c(O)c4c3C2=O)NC(=O)/C(C)=C\C=C\[C@H](C)[C@H](O)[C@@H](C)[C@@H](O)[C@@H](C)[C@H](OC(C)=O)[C@@H]1C [rifampicin]
- Growth with 15 μg/ml rifampicin ([1]; 15 μg/ml rifampicin, parent strain AGRI45-11): −
- Growth with 15 μg/ml rifampicin [8]: +

Molecule: CSCCC(N)C(=O)O (racemic) [DL-methionine]
- Effect on growth of the XMP producer strain [1]: inhibited the growth

Molecule: C[S+]([O-])CCC(N)C(=O)O (racemic) [DL-methionine sulfoxide]
- Growth with 10 mg/ml DL-methionine sulfoxide + 20 mg/ml DL-methionine ([1]; 10 mg/ml DL-methionine sulfoxide + 20 mg/ml DL-methionine, parent strain AGRI45-11): −
- Effect on growth of the XMP producer strain [1]: inhibited the growth
- Growth with 10 mg/ml DL-methionine sulfoxide + 20 mg/ml DL-methionine [9]: +

From patent US20020098552A1, “Method for producing xanthosine-5'-monophosphate by fermentation using mutant strains of Coryneform bacteria” (priority 2000, published 2002)
